Measurements as given in EP4603105A1, “PHARMACEUTICAL COMPOSITION CONTAINING CYCLIC COMPOUND HAVING SELECTIVE KRAS INHIBITORY EFFECT AGAINST HRAS AND NRAS” (CHUGAI SEIYAKU KABUSHIKI KAISHA, priority 2022, dated 2024).
Read-outs that look alike come from different tables or passages of the source.

Assays:
HRAS wild-type protein = HRAS wild-type protein (Homo sapiens, UniProt P01112); test: Binding to HRAS by surface plasmon resonance (SPR), KD and KD ratio to KRAS
Summary of the method: (§1)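 Measured at 30°C: SPR with GDP-loaded, E. coli-expressed biotin-Avi RAS captured (~100–300 RU), ascending 75 s compound injections, HBS pH 7.4 with GDP, MgCl2, 4% DMSO. KD from 1:1 fit.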

[1] = system: human lung cancer strain NCI-H441; test: NCI-H441 cell proliferation inhibitory activity (CellTiter-Glo, 4 days); type: cell-based; conditions: read-out: NCl-H441 IC50
Summary of the method: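 Signal came from […] measured per well once the reagent was added. Beforehand, cells were cultured at 37°C and 5% carbon dioxide on a compound series serially diluted in dimethyl sulfoxide.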

[2] = biological target: GDP-bound KRAS wild-type protein (Homo sapiens, UniProt P01116); test: Binding to KRAS by surface plasmon resonance (SPR), dissociation constant KD; conditions: 1:1 binding model
Summary of the method: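 GDP-loaded biotinylated Avi-tag RAS proteins (E. coli-expressed) captured on a Biotin CAPture chip at ~100–300 RU; single-cycle kinetics at 30°C, 100 µL/min, 75 s injections of rising compound concentrations. HBS pH 7.4 running buffer with 1 mM DTT, 10 mM MgCl2, 10 µM GDP, 4% DMSO. KD from 1:1 binding fit.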

[3] = biological target: GDP-bound NRAS wild-type protein (Homo sapiens, UniProt P01111); test: Binding to NRAS by surface plasmon resonance (SPR), KD and KD ratio to KRAS
Summary of the method: as §1

[4] = ratio of KD with respect to HRAS wild-type protein to KD with respect to KRAS
[5] = 50% proliferation inhibitory concentration, four days
[6] = ratio of KD with respect to GDP-bound NRAS wild-type protein to KD with respect to KRAS
[7] = ratio of KD for HRAS wild-type protein to KD for KRAS
[8] = ratio of KD for GDP-bound NRAS wild-type protein to KD for KRAS

HRAS wild-type protein, sequence (P01112 whole entry): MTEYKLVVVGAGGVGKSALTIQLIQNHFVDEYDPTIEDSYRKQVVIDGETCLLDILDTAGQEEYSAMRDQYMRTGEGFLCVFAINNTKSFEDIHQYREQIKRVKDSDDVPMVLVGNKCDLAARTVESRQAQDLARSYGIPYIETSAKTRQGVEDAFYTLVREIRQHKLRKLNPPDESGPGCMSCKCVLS
GDP-bound NRAS wild-type protein, sequence (P01111 whole entry): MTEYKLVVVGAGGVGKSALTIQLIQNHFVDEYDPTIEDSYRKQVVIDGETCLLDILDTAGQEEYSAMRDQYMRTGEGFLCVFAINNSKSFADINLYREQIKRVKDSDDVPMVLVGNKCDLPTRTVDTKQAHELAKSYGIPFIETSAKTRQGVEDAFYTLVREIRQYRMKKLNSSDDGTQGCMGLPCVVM
GDP-bound KRAS wild-type protein, sequence (P01116 1-188 isoform P01116-2): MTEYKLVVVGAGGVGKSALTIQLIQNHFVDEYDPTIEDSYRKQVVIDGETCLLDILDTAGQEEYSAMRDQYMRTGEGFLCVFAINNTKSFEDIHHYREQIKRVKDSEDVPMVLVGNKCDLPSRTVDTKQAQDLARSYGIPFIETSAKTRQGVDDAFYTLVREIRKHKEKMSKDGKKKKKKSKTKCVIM

CC[C@H](C)[C@@H]1NC(=O)[C@H](CC)N(C)C(=O)C[C@@H](C(=O)N(C)C)N(C)C(=O)[C@H](C2CCCC2)N(C)C(=O)C2(CCC2)NC(=O)[C@@H]2C[C@H](C)CN2C(=O)[C@H](CCc2cc(F)c(C(F)(F)F)c(F)c2)NC(=O)CN(C)C(=O)[C@H](CC2CCCCC2)N2CC/C=C\C[C@@H](C2=O)N(C)C(=O)CN(C)C1=O [PP1471]
HRAS /KRAS (HRAS wild-type protein; [4]): A (a compound having 10 or more and less than 20 is denoted as A) | IC50 [1, 5]: 48.2 nM | Kd ([2]; Single Cycle Kinetics): 0.25 nM | NRAS /KRAS [3, 6]: A (a compound having 10 or more and less than 20 is denoted as A)

CCO[C@@H]1C[C@H]2C(=O)NC3(CCCC3)C(=O)N(C)[C@@H](C3CCCC3)C(=O)N(C)[C@H](C(=O)N(C)C)CC(=O)N(C)[C@@H](CC(C)C)C(=O)N[C@@H]([C@@H](C)CC)C(=O)N(C)CC(=O)N(C)[C@H]3C/C=C\CCN(C3=O)[C@@H](CC3CCCCC3)C(=O)N(C)CC(=O)N[C@@H](CCc3cc(F)c(C(F)(F)F)c(F)c3)C(=O)N2C1 [PP1473]
HRAS /KRAS (HRAS wild-type protein; [4]): A (a compound having 10 or more and less than 20 is denoted as A) | IC50 [1, 5]: 36.6 nM | Kd ([2]; Single Cycle Kinetics): 0.19 nM | NRAS /KRAS [3, 6]: A (a compound having 10 or more and less than 20 is denoted as A)

CCO[C@@H]1C[C@H]2C(=O)NC3(CCC3)C(=O)N(C)[C@@H](C3CCCC3)C(=O)N(C)[C@H](C(=O)N(C)C)CC(=O)N(C)[C@@H](CC(C)(C)C)C(=O)N[C@@H]([C@@H](C)CC)C(=O)N(C)CC(=O)N(C)[C@H]3C/C=C\CCN(C3=O)[C@@H](CC3CCCCC3)C(=O)N(C)CC(=O)N[C@@H](CCc3cc(F)c(C(F)(F)F)c(F)c3)C(=O)N2C1 [PP1474]
HRAS /KRAS (HRAS wild-type protein; [4]): A (a compound having 10 or more and less than 20 is denoted as A) | IC50 [1, 5]: 48.2 nM | Kd ([2]; Single Cycle Kinetics): 0.23 nM | NRAS /KRAS [3, 6]: A (a compound having 10 or more and less than 20 is denoted as A)

CC[C@H](C)[C@@H]1NC(=O)[C@H](CC)N(C)C(=O)C[C@@H](C(=O)N(C)C)N(C)C(=O)[C@H](C2CCCC2)N(C)C(=O)C2(CCC2)NC(=O)[C@@H]2CCCN2C(=O)[C@H](CCc2cc(F)c(C(F)(F)F)c(F)c2)NC(=O)CN(C)C(=O)[C@H](CC2CCCCC2)N2CC/C=C\C[C@@H](C2=O)N(C)C(=O)CN(C)C1=O [PP1475]
HRAS /KRAS (HRAS wild-type protein; [4]): A (a compound having 10 or more and less than 20 is denoted as A) | IC50 [1, 5]: 48.9 nM | Kd ([2]; Single Cycle Kinetics): 0.55 nM | NRAS /KRAS [3, 6]: A (a compound having 10 or more and less than 20 is denoted as A)

CCO[C@@H]1C[C@H]2C(=O)NC3(CCC3)C(=O)N(C)[C@@H](C3CCCC3)C(=O)N(C)[C@H](C(=O)N(C)C)CC(=O)N(C)[C@@H](CC3CC3)C(=O)N[C@@H]([C@@H](C)CC)C(=O)N(C)CC(=O)N(C)[C@H]3C/C=C\CCN(C3=O)[C@@H](Cc3ccc(F)cc3C)C(=O)N(C)CC(=O)N[C@@H](CCc3ccc(Cl)c(Cl)c3)C(=O)N2C1 [PP1476]
HRAS /KRAS (HRAS wild-type protein; [4]): B (a compound having 3 or more and less than 10 is denoted as B) | IC50 [1, 5]: 216 nM | Kd ([2]; Single Cycle Kinetics): 1 nM | NRAS /KRAS [3, 6]: A (a compound having 10 or more and less than 20 is denoted as A)

CCO[C@@H]1C[C@H]2C(=O)NC3(CCC3)C(=O)N(C)[C@@H](C3CCCC3)C(=O)N(C)[C@H](C(=O)N(C)C)CC(=O)N(C)[C@@H](CC3CC3)C(=O)N[C@@H]([C@@H](C)CC)C(=O)N(C)CC(=O)N(C)[C@H]3C/C=C\CCN(C3=O)[C@@H](Cc3ccc(F)cc3)C(=O)N(C)CC(=O)N[C@@H](CCc3cc(F)c(Cl)c(F)c3)C(=O)N2C1 [PP1479]
HRAS /KRAS (HRAS wild-type protein; [4]): B (a compound having 3 or more and less than 10 is denoted as B) | IC50 [1, 5]: 140 nM | Kd ([2]; Single Cycle Kinetics): 0.49 nM | NRAS /KRAS [3, 6]: A (a compound having 10 or more and less than 20 is denoted as A)

CCO[C@@H]1C[C@H]2C(=O)NC3(CCC3)C(=O)N(C)[C@@H](C3CCCC3)C(=O)N(C)[C@H](C(=O)N(C)C)CC(=O)N(C)[C@@H](CC(C)C)C(=O)N[C@@H]([C@@H](C)CC)C(=O)N(C)CC(=O)N(C)[C@H]3C/C=C\CCN(C3=O)[C@@H](Cc3ccc(F)cc3C)C(=O)N(C)CC(=O)N[C@@H](CCc3ccc(Cl)c(Cl)c3)C(=O)N2C1 [PP1480]
HRAS /KRAS (HRAS wild-type protein; [4]): B (a compound having 3 or more and less than 10 is denoted as B) | IC50 [1, 5]: 85.8 nM | Kd ([2]; Single Cycle Kinetics): 0.92 nM | NRAS /KRAS [3, 6]: A (a compound having 10 or more and less than 20 is denoted as A)

CCO[C@@H]1C[C@H]2C(=O)NC3(CCC3)C(=O)N(C)[C@@H](C3CCCC3)C(=O)N(C)[C@H](C(=O)N(C)C)CC(=O)N(C)[C@@H](CC(C)C)C(=O)N[C@@H]([C@@H](C)CC)C(=O)N(C)CC(=O)N(C)[C@H]3C/C=C\CCN(C3=O)[C@@H](Cc3ccc(F)cc3)C(=O)N(C)CC(=O)N[C@@H](CCc3ccc(Cl)c(Cl)c3)C(=O)N2C1 [PP1482]
HRAS /KRAS (HRAS wild-type protein; [4]): B (a compound having 3 or more and less than 10 is denoted as B) | IC50 [1, 5]: 76.4 nM | Kd ([2]; Single Cycle Kinetics): 0.45 nM | NRAS /KRAS [3, 6]: A (a compound having 10 or more and less than 20 is denoted as A)

CCO[C@@H]1C[C@H]2C(=O)NC3(CCC3)C(=O)N(C)[C@@H](C3CCCC3)C(=O)N(C)[C@H](C(=O)N(C)C)CC(=O)N(C)[C@@H](CC3CC3)C(=O)N[C@@H]([C@@H](C)CC)C(=O)N(C)CC(=O)N(C)[C@H]3C/C=C\CCN(C3=O)[C@@H](Cc3ccc(C)cc3)C(=O)N(C)CC(=O)N[C@@H](CCc3cc(F)c(Cl)c(F)c3)C(=O)N2C1 [PP1484]
HRAS /KRAS (HRAS wild-type protein; [4]): A (a compound having 10 or more and less than 20 is denoted as A) | IC50 [1, 5]: 59.3 nM | Kd ([2]; Single Cycle Kinetics): 0.45 nM | NRAS /KRAS [3, 6]: A (a compound having 10 or more and less than 20 is denoted as A)

CCO[C@@H]1C[C@H]2C(=O)NC3(CCC3)C(=O)N(C)[C@@H](C3CCCC3)C(=O)N(C)[C@H](C(=O)N(C)C)CC(=O)N(C)[C@@H](CC3CC3)C(=O)N[C@@H]([C@@H](C)CC)C(=O)N(C)CC(=O)N(C)[C@H]3C/C=C\CCN(C3=O)[C@@H](Cc3ccc(C)cc3)C(=O)N(C)CC(=O)N[C@@H](CCc3ccc(Cl)c(Cl)c3)C(=O)N2C1 [PP1485]
HRAS /KRAS (HRAS wild-type protein; [4]): A (a compound having 10 or more and less than 20 is denoted as A) | IC50 [1, 5]: 30.5 nM | Kd ([2]; Single Cycle Kinetics): 0.28 nM | NRAS /KRAS [3, 6]: A (a compound having 10 or more and less than 20 is denoted as A)

CCOC[C@H]1C(=O)N[C@@H]([C@@H](C)CC)C(=O)N(C)CC(=O)N(C)[C@H]2C/C=C\CCN(C2=O)[C@@H](Cc2ccc(C(F)(F)F)cc2)C(=O)N(C)CC(=O)N[C@@H](CCc2ccc(C(F)(F)F)c(OC)c2)C(=O)N2C[C@@H](C)C[C@H]2C(=O)N(C)C2(CCC2)C(=O)N(C)[C@@H](C2CCCC2)C(=O)N(C)[C@H](C(=O)N(C)C)CC(=O)N1C [PP2359]
HRAS /KRAS (HRAS wild-type protein; [7]): B (a compound having 3 or more and less than 10 is denoted as B) | IC50 ([1]; NCI-H441 cells, 4 days): 7.6 nM | Kd [2]: 0.02 nM | NRAS /KRAS [3, 8]: A (a compound having 10 or more and less than 20 is denoted as A)

CCC[C@H]1C(=O)N[C@@H]([C@@H](C)CC)C(=O)N(C2CC2)CC(=O)N(C)[C@H]2C/C=C\CCN(C2=O)[C@@H](Cc2ccc(C(F)(F)F)cc2)C(=O)N(C)CC(=O)N[C@@H](CCc2ccc(C(F)(F)F)c(OC)c2)C(=O)N2C[C@@H](C)C[C@H]2C(=O)N(C)C2(CCC2)C(=O)N(C)[C@@H](C2CCCC2)C(=O)N(C)[C@H](C(=O)N(C)C)CC(=O)N1C [PP2360]
HRAS /KRAS (HRAS wild-type protein; [7]): B (a compound having 3 or more and less than 10 is denoted as B) | IC50 ([1]; NCI-H441 cells, 4 days): 2.9 nM | Kd [2]: 0.16 nM | NRAS /KRAS [3, 8]: A (a compound having 10 or more and less than 20 is denoted as A)

CCC[C@H]1C(=O)N[C@@H]([C@@H](C)CC)C(=O)N2CCC[C@H]2C(=O)N(C)[C@H]2C/C=C\CCN(C2=O)[C@@H](Cc2ccc(C(F)(F)F)cc2)C(=O)N(C)CC(=O)N[C@@H](CCc2ccc(C(F)(F)F)c(OC)c2)C(=O)N2C[C@@H](C)C[C@H]2C(=O)N(C)C2(CCC2)C(=O)N(C)[C@@H](C2CCCC2)C(=O)N(C)[C@H](C(=O)N(C)C)CC(=O)N1C [PP2362]
HRAS /KRAS (HRAS wild-type protein; [7]): A (a compound having 10 or more and less than 20 is denoted as A) | IC50 ([1]; NCI-H441 cells, 4 days): 4.8 nM | Kd [2]: 0.076 nM | NRAS /KRAS [3, 8]: A (a compound having 10 or more and less than 20 is denoted as A)

CCOC[C@H]1C(=O)N[C@@H]([C@@H](C)CC)C(=O)N2CCC[C@H]2C(=O)N(C)[C@H]2C/C=C\CCN(C2=O)[C@@H](Cc2ccc(C(F)(F)F)cc2)C(=O)N(C)CC(=O)N[C@@H](CCc2ccc(C(F)(F)F)c(OC)c2)C(=O)N2C[C@@H](C)C[C@H]2C(=O)N(C)C2(CCC2)C(=O)N(C)[C@@H](C2CCCC2)C(=O)N(C)[C@H](C(=O)N(C)C)CC(=O)N1C [PP2363]
HRAS /KRAS (HRAS wild-type protein; [7]): B (a compound having 3 or more and less than 10 is denoted as B) | IC50 ([1]; NCI-H441 cells, 4 days): 7.5 nM | Kd [2]: 0.062 nM | NRAS /KRAS [3, 8]: A (a compound having 10 or more and less than 20 is denoted as A)
